Experiments:
[1] = absolute recovery over vacuum-assisted evaporative concentration; higher = better recovery; details: enrichment method: VEC
Method in brief: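 Absolute recovery was calculated as (response ratio pre − unspiked)/(post − unspiked) × 100 from averages of ≥ 2 replicates. Influent (6 mL), effluent (15 mL), and surface and nanopure water (60 mL) samples were spiked with standards before concentration, after concentration, or not at all, at 200 ng/L for nanopure and surface water or 1000 ng/L for wastewater, with class- and compound-specific adjustments. Samples were evaporated at 55 °C and 20 mbar to about 0.3 mL, made up to 0.4 mL and centrifuged, then internal standards were added before LC-HRMS/MS analysis.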

[2] = absolute recovery over mixed-bed multilayer solid-phase extraction; higher = better recovery; details: enrichment method: SPE
Method in brief: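 Absolute recovery rests on background-corrected response ratios of pre- versus post-spiked samples, averaged over at least two replicates. Wastewater (100–250 mL, pH 6.5, glass-fibre filtered) was spiked at 1000 ng/L and unfiltered nanopure water (1000 mL) at 200 ng/L, before or after three-layer mixed-bed cartridge extraction or not at all, with exceptions for some classes. Analysis after internal standard addition used liquid chromatography with high-resolution tandem mass spectrometry in both ionisation modes.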

[3] = LC retention time (Atlantis T3, 5-95% MeOH gradient, 0.1% formic acid); higher = more retained / less polar
Method in brief: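 Retention times were recorded for reference standards (purity ≥ 95%) on a polar reversed-phase C18 column (Atlantis T3, 3 × 150 mm, 3 μm) at 0.3 mL/min. Elution used water and methanol, each with 0.1% formic acid, in a gradient from 5 to 95% methanol over 17.5 min. Detection was by high-resolution tandem mass spectrometry on a QExactive Plus, with positive and negative electrospray in separate runs. Peaks were found and integrated in TraceFinder (5 ppm tolerance, at least three points per peak) and then checked by hand.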

| SMILES | absolute recovery ([1]; wastewater effluent) [%] | absolute recovery ([1]; wastewater influent) [%] | absolute recovery ([2]; nanopure water) [%] | absolute recovery ([2]; surface water) [%] | absolute recovery ([2]; wastewater effluent) [%] | absolute recovery ([2]; wastewater influent) [%] | LC retention time [3] [min] |
| --- | --- | --- | --- | --- | --- | --- | --- |
| Nc1[nH]c2ccccc2[nH+]1 [2-Aminobenzimidazol] | 103 | 99.3 | 90.5 | 90.3 | 91.9 | 92 | 9.5 |
| Cn1sccc1=O [2-Methyl-4-isothiazolin-3-one] | 93.6 | 27 | 12 | 11 | 11.7 | 17 | 7.95 |
| O=S(=O)([O-])c1ccc2ccccc2c1 [2-Naphthalenesulfonic-acid] | 114 | 88.2 |  |  | 92.6 |  | 17.2 |
| CCCCCCCCn1sccc1=O [2-n-Octyl-4-isothiazolin-3-on (=OIT)] | 97.9 | 45.2 | 93 | 91.6 | 91.8 | 90.7 | 20.3 |
| Nc1c(I)c(N)c(I)c(C(=O)[O-])c1I [3-5-Diamino-2-4-6-triiodobenzoic-acid] | 104 | 97.2 | 95.4 | 91.9 | 68.2 | 82.4 | 15.4 |
| O=C([O-])c1cc(Br)c([O-])c(Br)c1 [3-5-Dibromo-4-hydroxybenzoic-acid] | 104 | 99.2 |  | 92.6 | 97.9 | 94.4 | 17.6 |
| [NH3+]C(Cc1cc(I)c(O)c(I)c1)C(=O)[O-] [3-5-Diiodo-L-tyrosine] | 90.5 | 96.4 | 69.5 | 39.2 | 55.8 | 74.5 | 13.2 |
| O=C([O-])c1cccc(Oc2ccccc2)c1 [3-Phenoxybenzoic-acid] | 98.8 | 102 | 103 |  | 96.1 | 99.4 | 19.8 |
| CC1(C)SC2C([NH3+])C(=O)N2C1C(=O)[O-] (centres undefined) [6-Aminopenicillanic-acid] | 90.3 | 86.7 |  |  |  |  | 4.79 |
| CCOCN(C(=O)CS(=O)(=O)[O-])c1c(C)cccc1CC [Acetochlor-ESA] |  | 108 |  |  |  |  | 17.2 |
| CCc1cccc(CC)c1N(COC)C(=O)CS(=O)(=O)[O-] [Alachlor-ESA] |  | 106 |  |  |  |  | 17.2 |
| CC(C)(C)[NH2+]CC(O)c1ccc(O)c(CO)c1 (centres undefined) [Albuterol] | 102 | 99.8 |  |  |  |  | 8.59 |
| CC1=C(C(=O)[O-])N2C(=O)C(NC(=O)C([NH3+])c3ccccc3)C2SC1 (centres undefined) [Cefalexin] | 65.2 |  |  |  |  |  | 20.2 |
| C[NH+]1CCN(C2=Nc3cc(Cl)ccc3Nc3ccccc32)CC1 [Clozapin] | 102 | 98 |  |  |  |  | 14.4 |
| CC(C)CN(CC(O)C(Cc1ccccc1)NC(=O)OC1COC2OCCC12)S(=O)(=O)c1ccc(N)cc1 (centres undefined) [Darunavir] | 101 | 99.7 |  |  |  |  | 18 |
| CCOP(=O)(OCC)Oc1cc(C)nc(C(C)C)n1 [Diazoxon] | 85.6 | 95.3 |  |  |  |  | 18.8 |
| O=C(NCC1CCCC[NH2+]1)c1cc(OCC(F)(F)F)ccc1OCC(F)(F)F (centres undefined) [Flecainid] | 105 | 106 |  |  |  |  | 14.5 |

| SMILES | absolute recovery ([1]; wastewater effluent) [%] | absolute recovery ([1]; wastewater influent) [%] | absolute recovery ([2]; nanopure water) [%] | absolute recovery ([2]; surface water) [%] | absolute recovery ([2]; wastewater effluent) [%] | absolute recovery ([2]; wastewater influent) [%] | LC retention time [3] [min] |
| --- | --- | --- | --- | --- | --- | --- | --- |
| CC(C)n1c(C=CC(O)CC(O)CC(=O)[O-])c(-c2ccc(F)cc2)c2ccccc21 (centres undefined) [Fluvastatin] | 105 | 72.3 |  |  |  |  | 20.8 |
| O=C(CCC[NH+]1CCC(O)(c2ccc(Cl)cc2)CC1)c1ccc(F)cc1 [Haloperidol] | 114 | 118 |  |  |  |  | 15 |
| CC(C(=O)[O-])c1cccc(C(=O)c2ccccc2)c1 (centres undefined) [Ketoprofen] | 110 | 96.4 |  |  |  |  | 18.8 |
| Cc1c(OCC(F)(F)F)ccnc1CS(=O)c1nc2ccccc2[nH]1 (centres undefined) [Lansoprazole] | 86.8 | 100 |  |  |  |  | 17.1 |
| CCC(=O)C(CC(C)[NH+](C)C)(c1ccccc1)c1ccccc1 (centres undefined) [Methadon] | 105 | 100 |  |  |  |  | 15.9 |
| O=C([O-])C(F)(F)C(F)(F)C(F)(F)C(F)(F)C(F)(F)F [PFHxA] | 95.2 | 89.4 |  |  |  |  | 18.8 |
| O=C([O-])C(F)(F)C(F)(F)C(F)(F)C(F)(F)C(F)(F)C(F)(F)C(F)(F)F [PFOA] | 87.3 | 90 |  |  |  |  | 20 |
| CCc1cc(C)cc(CC)c1-c1c(OC(=O)C(C)(C)C)n2n(c1=O)CCOCC2 [Pinoxaden] | 51.6 | 10.7 |  |  |  |  | 21.2 |
| COc1cc(NC(C)CCC[NH3+])c2ncccc2c1 (centres undefined) [Primaquine] | 60.5 | 37.5 |  |  |  |  | 14.4 |
| CCCN(CCC)C(=O)SCc1ccccc1 [Prosulfocarb] |  |  | 38.9 | 35.1 | 43.2 |  | 11.5 |
| CNC(=C[N+](=O)[O-])NCCSCc1ccc(C[NH+](C)C)o1 [Ranitidin] | 102 | 98.7 |  |  |  |  | 8.64 |
| Oc1ccc(C=Cc2cc(O)cc(O)c2)cc1 [Resveratrol] |  |  | 57.8 | 66.6 | 48.4 | 68.9 | 15.5 |
| [NH3+]C(CC(=O)N1CCn2c(nnc2C(F)(F)F)C1)Cc1cc(F)c(F)cc1F (centres undefined) [Sitagliptin] |  |  | 53.8 | 67.1 |  |  | 12.6 |
| Cc1cc([N-]S(=O)(=O)c2ccc(N)cc2)no1 [Sulfamethoxazol] | 102 | 113 |  |  |  |  | 13 |
| COc1cc(Cc2c[nH+]c(N)nc2N)cc(OC)c1OC [Trimethoprim] | 107 | 106 |  |  |  |  | 10.5 |
| [NH3+]C(CO)(CO)CO [Trometamol] | 105 | 73.2 |  |  |  |  | 2.85 |
| COc1ccc(CC[NH+](C)CCCC(C#N)(c2ccc(OC)c(OC)c2)C(C)C)cc1OC (centres undefined) [Verapamil] | 98.2 | 97.4 |  |  |  |  | 15.1 |

Reference: the supplement of paper PMC6470124
